Laboratory results: PubChem BioAssay AID2060893 (Molecular Pharmacology Branch, DTP, NCI, 2025)

Test system: K86415-001-R-J1-PDC complex spheroids, viability
Assay: Anticancer human tumor K86415-001-R-J1-PDC patient-derived lung adenocarcinoma cell line growth inhibition [RAS]
Conditions: for IC50: curve of first compound; for viability, T/C: stronger effect = lower value; active means viability on the fitted dose curve at most 10% of control; inactive means the rest
Outline: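 Tumour cells grown as complex spheroids with HUVEC endothelial cells and mesenchymal stem cells, treated with RAS pathway inhibitor combinations. Each agent spans half-log steps from near clinical Cmax, or 10 microM where Cmax is unknown.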
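Further: spheroids exposed to agents for seven days before readout.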

CCc1c2c(nc3ccc(O)cc13)-c1cc3c(c(=O)n1C2)COC(=O)[C@]3(O)CC + CCn1c(-c2cc(N3CCN(C)CC3)cnc2C(C)OC)c2c3cc(ccc31)-c1csc(n1)CC(NC(=O)C1CC1C)C(=O)N1CCCC(N1)C(=O)OCC(C)(C)C2
inactive: viability, T/C (second compound 0.000949 µM, first compound 0.000949 µM) 43.2% | viability, T/C (second compound 0.000949 µM, first compound 0.003 µM) 23.9% | viability, T/C (second compound 0.000949 µM, first compound 0.00949 µM) 12.9% | viability, T/C (second compound 0.000949 µM, first compound 0.03 µM) 16.1% | viability, T/C (second compound 0.003 µM, first compound 0.000949 µM) 22% | viability, T/C (second compound 0.003 µM, first compound 0.003 µM) 13.5% | viability, T/C (second compound 0.003 µM, first compound 0.00949 µM) 12.4% | viability, T/C (second compound 0.003 µM, first compound 0.03 µM) 13.3%
active: viability, T/C (second compound 0.000949 µM, first compound 0.0949 µM) 11.6% | viability, T/C (second compound 0.000949 µM, first compound 0.3 µM) 4.09% | viability, T/C (second compound 0.003 µM, first compound 0.0949 µM) 10.2% | viability, T/C (second compound 0.003 µM, first compound 0.3 µM) 3.14% | viability, T/C (second compound 0.00949 µM, first compound 0.000949 µM) 9.02% | viability, T/C (second compound 0.00949 µM, first compound 0.003 µM) 7.98% | viability, T/C (second compound 0.00949 µM, first compound 0.00949 µM) 8.68% | viability, T/C (second compound 0.00949 µM, first compound 0.03 µM) 8.25% | viability, T/C (second compound 0.00949 µM, first compound 0.0949 µM) 5.09% | viability, T/C (second compound 0.00949 µM, first compound 0.3 µM) 2.46% | viability, T/C (second compound 0.03 µM, first compound 0.000949 µM) 5.24% | viability, T/C (second compound 0.03 µM, first compound 0.003 µM) 5.47% | viability, T/C (second compound 0.03 µM, first compound 0.00949 µM) 3.66% | viability, T/C (second compound 0.03 µM, first compound 0.03 µM) 3.44% | viability, T/C (second compound 0.03 µM, first compound 0.0949 µM) 2.88% | viability, T/C (second compound 0.03 µM, first compound 0.3 µM) 1.87% | viability, T/C (second compound 0.0949 µM, first compound 0.000949 µM) 3.46% | viability, T/C (second compound 0.0949 µM, first compound 0.003 µM) 3.37% | viability, T/C (second compound 0.0949 µM, first compound 0.00949 µM) 2.84% | viability, T/C (second compound 0.0949 µM, first compound 0.03 µM) 2.41% | viability, T/C (second compound 0.0949 µM, first compound 0.0949 µM) 1.76% | viability, T/C (second compound 0.0949 µM, first compound 0.3 µM) 0.94% | viability, T/C (second compound 0.3 µM, first compound 0.000949 µM) 2.47% | viability, T/C (second compound 0.3 µM, first compound 0.003 µM) 2.36% | viability, T/C (second compound 0.3 µM, first compound 0.00949 µM) 2.47% | viability, T/C (second compound 0.3 µM, first compound 0.03 µM) 2.01% | viability, T/C (second compound 0.3 µM, first compound 0.0949 µM) 2.07% | viability, T/C (second compound 0.3 µM, first compound 0.3 µM) 0.89%
< 0.949 nM: IC50 (second compound 0.000949 µM) | IC50 (second compound 0.003 µM) | IC50 (second compound 0.00949 µM) | IC50 (second compound 0.03 µM) | IC50 (second compound 0.0949 µM) | IC50 (second compound 0.3 µM)
